Measured values from patent US20230192764A1, “NOVEL DOPAMINE PRECURSORS” (Yissum Research Development Company of the Hebrew …, priority 2018, published 2023).
“And” between values parts separate entries of the source, which are not always exact repeats. Equal values may be shown once.

What was measured:
[1] = test system: Rotenone -induced model of Parkinson's disease (PD) in rats; assay: Rat rearing behavior (cylinder) test, rotenone model; format: in vivo, Sprague Dawley rats; details: for Cylinder rise and touch (number of rears in 2 min): individual rat, listed as SD
Description: (§1) 1-SD (Rotenone + SD); 2 - SDA (Rotenone + SDA); 3 - Control (Rotenone); 4 -Naive. The experimental groups were comprised of 6 animals for treated groups (1-3) and 2 animals in naive group (4). Rotenone was administrated 3.0 mg/kg intraperitoneally (IP) once a day in the morning (days 1-9). SD 33 mg/kg and SDA 33 mg/kg were administrated intraperitoneally once a day in the afternoon (days 1-9).
(§2) Rearing behavior, rotarod and beam walk tests were performed before initiation of treatment (day 0) as well as on days 4, 8 and 10 of the experiment.
(§3) IP administration: Rotenone was administrated to groups 1-3. Rotenone was injected intraperitoneally at a dose 3.0 mg/kg once a day in the morning (days 1-9). SD and SDA was administrated both at a dose of 33 mg/kg and were injected intraperitoneally once a day in the afternoon (days 1-9). Group number 4 was untreated, and remained as a naive group.
Animals were placed in a clear glass cylinder (40 cm high and 20 cm diameter) and number of rears in 2 min was observed. Rear was considered as animals raised their hands above the shoulder and made contact with the wall of cylinder with their forelimb.

p38MAPK phosphorylation = assay: AuF-induced phosphorylation of p38MAPK in SH-SY5Y cells, western blot; format: cell-based, human
Description: Cells were treated with 10 µM AuF with or without SD-444. Phosphorylation was determined by western blot analysis. The amount of each band was quantitated by densitometry and plotted with a linear regression program normalized with β catenin (b-cat).
(§4) In the assay, twenty to thirty micrograms of protein samples were loaded on 10-12% SDS-PAGE gels. The proteins were then transferred electrophoretically to nitrocellulose (Whatman, Germany). The blots were blocked by incubation for 1 h at RT in TBS-T (25 mM Tris-HCl pH 7.4, 0.9% NaCl and 0.02% Tween-20) with 4% Difco skim milk (BD, USA), and incubated over-night at 4° C. with the primary antibody: p-p38^MAPK (Thr180/Tyr182), rabbit mAb; p38, rabbit Ab.

[2] = test system: Rotenone -induced model of Parkinson's disease (PD) in rats; assay: Rat beam walk test, rotenone model; format: in vivo, Sprague Dawley rats; details: for beam end time: individual rat, listed as SD
Description: as §1, §2, §3
Animals were gently placed on 1 m long narrow aluminum beam facing one of the ends and allowed to walk to the end of the beam.

JNK phosphorylation = assay: AuF-induced phosphorylation of JNK in SH-SY5Y cells, western blot; format: cell-based, human
Description: SH-SY5Y cells were treated with 10 µM AuF with or without SD-444. Phosphorylation was determined by western blot analysis. The amount of each band was quantitated by densitometry and plotted with a linear regression program normalized to total JNK.
as §4
as §4, with “1h” for “1 h”, “p-JNK^MAPK, and β-catenin.” for “p-p38^MAPK (Thr180/Tyr182), rabbit mAb; p38, rabbit Ab.”

[3] = test system: human neuroblastoma cells (SH-SY5Y); assay: Viability of SH-SY5Y cells after auranofin (AuF) challenge, methylene blue staining; format: cell-based; details: SH-SY5Y pre-treated with 5 µM AuF 30 min, washed, compound added, viability 24 h later
Description: Viability of cells pre-treated with 5 µM AuF for 30 min, washed and later exposed to increasing concentrations of SD-444, was determined 24 h later.
A) The anti-apoptotic activity of SD-444 was tested on human neuronal cells SH-SY5Y. The cells were challenged by auranofin (AuF) that induces cellular stress by selectively blocking the thioredoxin reductase activity.
SH-SY5Y cells were plated on 96-well plates and treated with AuF in different concentrations for 30 min. Then the cells were washed with PBS and treated as indicated. Twenty-four hours later, the cells were fixed with glutaraldehyde in final concentration of 0.5% for 10 min. Cells were washed 3 times with DDW dried overnight, and washed once with borate buffer (0.1 M, pH 8.5). The fixed cells were stained with 200 µl of 1% methylene blue dissolved in borate buffer for 1 h. After extensive washing and drying, the color was extracted with 200 µl of 0.1 M HCl for 1 h at 37° C. and absorbance was read in spectrophotometer at 630 nm.

[4] = Body weight monitoring in rotenone-treated rats; format: in vivo, Sprague Dawley rats; details: for Weight: individual rat, listed as SD
Description: as §1
Animals weight was measured before initiation of treatment (day 0), on days 4,7, 9 during the experiment and on termination day 11. On day 11, animals were sacrificed and brains were harvested for further histopathological analysis.
as §3

[5] = test system: Rotenone -induced model of Parkinson's disease (PD) in rats; assay: Rotarod behavior assay, rotenone model; format: in vivo, Sprague Dawley rats; details: for R.R (rotarod): individual rat, listed as SD
Description: as §1, §2, §3
The test was used to evaluate motor coordination and balance. Apparatus was set to accelerate from 4 to 40 rpm in 300 s, and animals from same cage are placed in separate lanes on rod initially rotating at 4 rpm.

[6] = average n=6, day 0 (before treatment)
[7] = day 0 (before treatment), rotenone 3 mg/kg + compound 33 mg/kg IP
[8] = rats, rotenone 3.0 mg/kg IP + compound 33 mg/kg IP, days 1-9

CC(=O)NC(CS)C(=O)NC(Cc1cccc(O)c1O)C(=O)NC(CS)C(N)=O (stereo not shown) [SD-444, Acetyle-Cys-2,3 dihydroxyphenylalanin-Cys- amide]
Cylinder rise and touch, group average [1, 6]: 12.33
Cylinder rise and touch, group average ([1]; average n=6, day 4): 14.00
Cylinder rise and touch, group average ([1]; average n=6, day 8): 12.33
Cylinder rise and touch, group average ([1]; average n=6, day 10): 13.00
Cylinder rise and touch (number of rears in 2 min) [1, 7]: 13 (3×) and 8 and 18 and 9
Cylinder rise and touch (number of rears in 2 min) ([1]; day 4): 22 and 9 and 12 and 13 (2×) and 15
Cylinder rise and touch (number of rears in 2 min) ([1]; day 8): 9 and 10 (2×) and 18 and 15 and 12
Cylinder rise and touch (number of rears in 2 min) ([1]; day 10): 16 and 13 and 17 and 9 and 15 and 8
Cylinder test, maintaining locomotor activity in Rotenone-treated rats [1, 8]: very effective
concentration at which significant reduction in p38 activation is seen (p38MAPK phosphorylation; 10 µM AuF, western blot): 30 µM
p38 phosphorylation (AuF-triggered) (p38MAPK phosphorylation; summary statement): inhibit
beam end time, group average [2, 6]: 11.33 s
beam end time, group average ([2]; average n=6, day 4): 20.17 s
beam end time, group average ([2]; average n=6, day 8): 22.00 s
beam end time, group average ([2]; average n=6, day 10): 22.67 s
beam end time [2, 7]: 10 sec (2×) and 19 sec and 5 sec and 8 sec and 16 sec
beam end time ([2]; day 4): 31 s and 13 s and 15 s and 6 s and 38 s and 18 s
beam end time ([2]; day 8): 23 s and 22 s and 18 s and 16 s and 21 s and 32 s
beam end time ([2]; day 10): 43 s and 23 s and 17 s and 12 s and 27 s and 14 s
Walk-beam test, reversal of rotenone induced imbalance [2, 8]: very effective
concentration at which significant reduction in JNK activation is seen (JNK phosphorylation; 10 µM AuF, western blot): 10 µM
JNK phosphorylation (AuF-triggered) (JNK phosphorylation; summary statement): inhibit
neuronal cell-viability after AuF [3]: partially restored
neuronal cell-viability after AuF ([3]; listed as SD): increase viability
Weight, group average [4, 6]: 304.83 gr
Weight, group average ([4]; average n=6, day 4): 299.83 gr
Weight, group average ([4]; average n=6, day 7): 294.17 gr
Weight, group average ([4]; average n=6, day 9): 290.17 gr
Weight, group average ([4]; average n=6, day 11): 283.17 gr
Weight [4, 7]: 300 gr (2×) and 307 gr and 294 gr and 315 gr and 313 gr
Weight ([4]; day 4, rotenone 3 mg/kg + compound 33 mg/kg IP): 299 gr (2×) and 296 gr and 290 gr and 310 gr and 305 gr
Weight ([4]; day 7, rotenone 3 mg/kg + compound 33 mg/kg IP): 298 gr and 281 gr and 286 gr and 305 gr and 294 gr and 301 gr
Weight ([4]; day 9, rotenone 3 mg/kg + compound 33 mg/kg IP): 295 gr and 285 gr and 280 gr and 298 gr and 286 gr and 297 gr
Weight ([4]; day 11, rotenone 3 mg/kg + compound 33 mg/kg IP): 290 gr (2×) and 278 gr and 284 gr and 283 gr and 274 gr
R.R (rotarod), group average [5, 6]: 283.33 s
R.R (rotarod), group average ([5]; average n=6, day 4): 275.00 s
R.R (rotarod), group average ([5]; average n=6, day 8): 256.67 s
R.R (rotarod), group average ([5]; average n=6, day 10): 240.50 s
R.R (rotarod) [5, 7]: 274 s and 280 s and 288 s and 300 s and 291 s and 267 s
R.R (rotarod) ([5]; day 4): 280 sec and 268 sec and 300 sec (2×) and 247 sec and 255 sec
R.R (rotarod) ([5]; day 8): 249 s and 251 s and 282 s and 267 s and 254 s and 237 s
R.R (rotarod) ([5]; day 10): 248 s and 255 s and 258 s and 266 s and 224 s and 192 s
rotarod test, motor dysregulation mediated by rotenone [5, 8]: significantly reversed
